Drawing on the SangsterLogP compilation, this text covers logD for 13 molecules.

This data set in a line: method code SF-HPLC, from DOI: 10.1081/jlc-100101463. Particulars: pH 12.0.

Turning to `CC1CCCCN1CC1CN=C(N)O1` (stereo not drawn), the logD (as a rule, the decadic logarithm of the distribution of all forms, ionised or not, between an organic phase and buffer at a given pH) was found to be 0.73. For `CC1CN(CC2CN=C(N)O2)CC(C)O1` (stereo not drawn), the pH-dependent lipophilicity (logD) was 0.16. Next, `NC1=NCC(CN2CCOCC2)O1` (stereo not drawn): -0.22; `CC(C)N(CC1CN=C(N)O1)C(C)C` (stereo not drawn): 0.98; `NC1=NCC(CN2CCC(Cc3ccccc3)CC2)O1` (stereo not drawn): 2.38.

The molecule `CC(=O)c1cccc(OCC2CN=C(N)O2)c1` (stereo not drawn) had a logD of 1.31. The value for `NC1=NCC(CN2CCC(c3ccccc3)CC2)O1` (stereo not drawn) was 1.96; that for `CC1CCCC(C)N1CC1CN=C(N)O1` (stereo not drawn) was 0.94; that for `CC1CCN(CC2CN=C(N)O2)CC1` (stereo not drawn) was 0.91. Molecule `NC1=NCC(CN2CC=CCC2)O1` (stereo not drawn) returned a logD of 0.19. For `CC(C)(C)c1ccc(OCC2CN=C(N)O2)cc1` (stereo not drawn), the pH-dependent lipophilicity (logD) is 2.87.

`Cc1cc(C)cc(OCC2CN=C(N)O2)c1` (stereo not drawn) yielded a logD of 2.24. The value for `NC1=NCC(CN2CCC(C(=O)c3ccccc3)CC2)O1` (stereo not drawn) was 1.05.
